According to patent publication US6743790B2, “Factor VIIa inhibitory (thio)urea derivatives, their preparation and their use” (Aventis Pharma Deutschland GmbH, priority 2000, dated 2004):
pKi: −log10 of the molar value.

Assays:
[1] = target: T1, factor VIIa/tissue factor (Homo sapiens, UniProt P08709); test: Factor VIIa (FVIIa) chromogenic assay; assay type: biochemical; details: human factor VIIa 5 nM and TF 10 nM, substrate S-2288 500 μM, 25° C., 15 minute preincubation
T1 construct: human factor VIIa and TF (5 nM and 10 nM, respective final concentration)
T1 sequence (P08709 213-466 limits assumed): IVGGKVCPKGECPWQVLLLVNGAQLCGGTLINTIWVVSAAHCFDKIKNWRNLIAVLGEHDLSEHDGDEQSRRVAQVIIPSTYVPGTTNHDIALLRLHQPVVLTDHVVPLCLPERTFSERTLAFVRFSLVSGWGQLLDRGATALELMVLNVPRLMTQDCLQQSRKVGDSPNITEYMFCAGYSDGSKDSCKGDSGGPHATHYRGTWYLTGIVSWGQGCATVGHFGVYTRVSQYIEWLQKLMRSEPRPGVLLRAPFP
T1 sequence (P08709 61-212 limits assumed): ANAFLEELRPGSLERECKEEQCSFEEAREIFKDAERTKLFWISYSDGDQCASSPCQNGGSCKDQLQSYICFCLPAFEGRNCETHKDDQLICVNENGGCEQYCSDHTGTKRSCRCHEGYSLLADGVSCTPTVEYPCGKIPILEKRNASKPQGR
T1 sequence (P13726 33-295 partner): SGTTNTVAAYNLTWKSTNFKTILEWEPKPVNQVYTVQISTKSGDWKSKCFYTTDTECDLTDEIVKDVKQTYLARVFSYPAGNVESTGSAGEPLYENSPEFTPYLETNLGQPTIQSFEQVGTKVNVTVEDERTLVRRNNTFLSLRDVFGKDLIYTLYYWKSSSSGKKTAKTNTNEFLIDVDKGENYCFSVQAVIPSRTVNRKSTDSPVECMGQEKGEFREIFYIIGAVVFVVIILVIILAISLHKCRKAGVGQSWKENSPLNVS
Protocol: The ability of the compounds of the formula I to inhibit factor VIIa or other enzymes like factor Xa, thrombin, plasmin, or trypsin is assessed by determining the concentration of the compound of the formula I that inhibits enzyme activity by 50%, i.e. the IC50 value, which is related to the inhibition constant Ki. Purified enzymes are used in chromogenic assays. The concentration of inhibitor that causes a 50% decrease in the rate of substrate hydrolysis is determined by linear regression after plotting the relative rates of hydrolysis (compared to the uninhibited control) versus the log of the concentration of the compound of formula I. For calculating the inhibition constant Ki, the IC50 value is corrected for competition with substrate using the formula Ki=IC50/{1+(substrate concentration/Km)},
wherein Km is the Michaelis-Menten constant (Chen and Prusoff, Biochem. Pharmacol. 22 (1973), 3099-3108; I. H. Segal, Enzyme Kinetics, 1975, John Wiley & Sons, New York, 100-125; which are incorporated herein by reference).
The inhibitory activity (expressed as inhibition constant Ki(FVIIa)) of the compounds of formula I towards factor VIIa/tissue factor activity was determined using a chromogenic assay essentially as described previously (J. A. Ostrem et al., Biochemistry 37 (1998) 1053-1059 which is incorporated herein by reference). Kinetic assays were conducted at 25° C. in half-area microtiter plates (Costar Corp., Cambridge, Mass.) using a kinetic plate reader (Molecular Devices Spectramax 250). A typical assay consisted of 25 μl human factor VIIa and TF (5 nM and 10 nM, respective final concentration) combined with 40 μl of inhibitor dilutions in 10% DMSO/TBS-PEG buffer (50 mM Tris, 15 mM NaCl, 5 mM CaCl2, 0.05% PEG 8000, pH 8.15). Following a 15 minute preincubation period, the assay was initiated by the addition of 35 μl of the chromogenic substrate S-2288 (D-Ile-Pro-Arg-p-nitroanilide, Pharmacia Hepar Inc., 500 μM final concentration).

Row | Structure (SMILES) | pKi [1] | melting point
1 | C[C@H](NC(=O)CNC(=O)Nc1ccc(C(=N)N)c(F)c1)c1cccc(Br)c1 [Example 69, N-[(S)-1-(3-Bromophenyl)ethyl]-2-[3-(4-carbamimidoyl-3-fluorophenyl)ureido]-acetamide] | 6.94 | 
2 | CC(NC(=O)CNC(=O)Nc1ccc(C(=N)N)cc1)c1ccc(NC(=O)c2cccc(Oc3ccccc3)c2)cc1 (centres unmarked) [Example 52] | 7.92 | 
3 | N=C(N)c1ccc(NC(=O)NCC(=O)NC(c2ccccc2)c2ccncc2)cc1 (centres unmarked) [Example 41] | 6.08 | 
4 | N=C(N)c1ccc(NC(=O)NCC(=O)NC(c2ccccc2)c2ccccc2)cc1 [Example 5, N-Benzhydryl-2-[3-(4-carbamimidoylphenyl)ureido]acetamide] | 6.14 | 
5 | CC(NC(=O)CNC(=O)Nc1ccc(C(=N)N)cc1)c1ccc(NC(=O)C2CCNCC2)cc1 (centres unmarked) [Example 49, Piperidine-4-carboxylic acid 4-(1-{2-[3-(4-carbamimidoylphenyl)ureido]acetylamino}-ethyl)phenylamide] | 7.89 | 
6 | CC(NC(=O)CNC(=O)Nc1ccc(C(=N)N)cc1)c1ccc(Oc2ccc([N+](=O)[O-])cc2)cc1 (centres unmarked) [Example 37] | 7.07 | 
7 | N=C(N)c1ccc(NC(=O)NCC(=O)N[C@H]2CCCc3ccccc32)cc1 [Example 45] | 5.85 | 
8 | CC(NC(=O)CNC(=O)Nc1ccc(C(=N)N)cc1)c1ccc(C(F)(F)F)cc1C(F)(F)F (centres unmarked) [Example 60] | 7.57 | 
9 | COc1ccc(Oc2ccc(C(C)NC(=O)CNC(=O)Nc3ccc(C(=N)N)cc3)cc2)cc1 (centres unmarked) [Example 36] | 7.08 | 
10 | CC(NC(=O)CNC(=O)Nc1ccc(C(=N)N)cc1)c1ccc(Oc2ccc(Cl)cc2Cl)cc1 (centres unmarked) [Example 9] | 6.32 | 
11 | COC(=O)c1cc(C(C)NC(=O)CNC(=O)Nc2ccc(C(=N)N)cc2)ccc1OCc1ccccc1 (centres unmarked) [Example 64] | 7.48 | 
12 | CC(NC(=O)CNC(=O)Nc1ccc(C(=N)N)c(Cl)c1)c1ccc2c(c1)OCCO2 (centres unmarked) [Example 68, 2-[3-(4-Carbamimidoyl-3-chlorophenyl)ureido]-N-[1-(2,3-dihydrobenzo[1,4]dioxin-6-yl)ethyl]acetamide] | 5.40 | 

The next lines start with the values.

Row | pKi [1] | melting point | Structure (SMILES)
13 | 5.10 |  | N=C(N)c1ccc(NC(=O)NCC(=O)NCc2ccncc2)cc1 [Example 40]
14 | 4.83 |  | C[C@H](NC(=O)Nc1ccc(C(=N)N)cc1)C(=O)NCc1ccc(C(=N)N)cc1 [Example 1, (S)-N-(4-Carbamimidoylbenzyl)-2-[3-(4-carbamimidoylphenyl)ureido]propionamide]
15 | 6.27 |  | C[C@H](NC(=O)[C@H](CCC(=O)O)NC(=O)Nc1ccc(C(=N)N)cc1)c1cccc(Br)c1 [Example 70, (S)-4-[((S)-1-(3-Bromophenyl)ethyl)carbamoyl]-4-[3-(4-carbamimidoylphenyl)ureido]-butyric Acid]
16 | 6.37 |  | C[C@H](NC(=O)CNC(=O)Nc1ccc(C(=N)N)cc1)c1ccccc1 [Example 18]
17 | 5.66 |  | N=C(N)c1ccc(NC(=O)NCC(=O)NCc2cccc(Cl)c2)cc1 [Example 6, 2-[3-(4-carbamimidoylphenyl)ureido]-N-(3-chlorobenzyl)acetamide]
18 | 7.33 |  | CC(NC(=O)CNC(=O)Nc1ccc(C(=N)N)cc1)c1ccc(NC(=O)CCCN)cc1 (centres unmarked) [Example 54]
19 | 4.68 | 147 °C | CN(C)c1ccc(CNC(=O)C(Cc2ccccc2)NC(=O)Nc2ccc(C(=N)N)cc2)cc1 (centres unmarked) [Example 2, 2-[3-(4-Carbamimidoylphenyl)ureido]-N-(4-dimethylaminobenzyl)-3-phenylpropionamide]
20 | 5.82 |  | N=C(N)c1ccc(NC(=O)NCC(=O)N[C@H]2CCc3ccccc32)cc1 [Example 44]
21 | 4.69 |  | C[C@@H](NC(=O)CNC(=O)Nc1ccc(C(=N)N)cc1)c1ccccc1 [Example 19]
22 | 5.20 |  | N=C(N)c1ccc(NC(=O)NCC(=O)NC(Cc2ccccc2)c2ccccc2)cc1 (centres unmarked) [Example 15]
23 | 6.01 |  | N=C(N)c1ccc(NC(=O)NCC(=O)NCc2ccc(Cl)c(Cl)c2)cc1 [Example 3, 2-[3-(4-Carbamimidoylphenyl)ureido]-N-(3,4-dichlorobenzyl)acetamide]
24 | 5.07 |  | N#CC(NC(=O)CNC(=O)Nc1ccc(C(=N)N)cc1)c1ccc(F)cc1 (centres unmarked) [Example 43]
25 | 7.64 |  | CC(NC(=O)CNC(=O)Nc1ccc(C(=N)N)cc1)c1ccc2c(c1)NC(=O)CO2 (centres unmarked) [Example 61]
26 | 5.71 | 209 to 214 °C | CN(C)c1ccc(CNC(=O)CNC(=O)Nc2ccc(C(=N)N)cc2)cc1 [Example 4, 2-[3-(4-Carbamimidoylphenyl)ureido]-N-(4-dimethylaminobenzyl)acetamide]
27 | 6.89 |  | Cc1ccc([C@H](C)NC(=O)CNC(=O)Nc2ccc(C(=N)N)cc2)cc1 [Example 21]
28 | 7.59 |  | C[C@H](NC(=O)CNC(=O)Nc1ccc(C(=N)N)cc1)c1ccc2ccccc2c1 [Example 30]
29 | 7.30 |  | CC(NC(=O)CNC(=O)Nc1ccc(C(=N)N)cc1)c1ccc(NC(=O)c2cccnc2)cc1 (centres unmarked) [Example 51]
30 | 5.12 |  | CC(C)(NC(=O)CNC(=O)Nc1ccc(C(=N)N)cc1)c1ccccc1 [Example 42]
